Where a name gives a salt, the structure may show the parent alone.
Row | Structure (SMILES) | melting point
1 | CCOCc1nc2c(N)nc3ccccc3c2n1CCCCCS(N)(=O)=O [Example 23, 5-(4-Amino-2-ethoxymethyl-1H-imidazo[4,5-c]quinolin-1-yl)pentane-1-sulfonamide] | 176 to 178 °C
2 | CCOCc1nc2c(N)nc3ccccc3c2n1CCCCS(=O)(=O)NC1CCCCC1 [Example 13, N-Cyclohexyl 4-(4-amino-2-ethoxymethyl-1H-imidazo[4,5-c]quinolin-1-yl)butane-1-sulfonamide] | 197 to 198 °C
3 | CCOCc1nc2c(N)nc3ccccc3c2n1CCCCS(=O)(=O)Nc1ccc(OC)cc1 [Example 8, N-(4-Methoxyphenyl) 4-(4-amino-2-ethoxymethyl-1H-imidazo[4,5-c]quinolin-1-yl)butane-1-sulfonamide] | 229 to 230 °C
4 | CCc1nc2c(N)nc3ccccc3c2n1CCCCS(=O)(=O)NCc1ccc(OC)cc1 [Example 5, N-(4-Methoxybenzyl) 4-(4-amino-2-ethyl-1H-imidazo[4,5-c]quinolin-1-yl)butane-1-sulfonamide] | 176 to 177 °C
5 | CCc1nc2c(N)nc3ccccc3c2n1CCCCS(N)(=O)=O (as salt: trifluoroacetate) [Example 6, 4-(4-Amino-2-ethyl-1H-imidazo[4,5-c]quinolin-1-yl)butane-1-sulfonamide] | 225 to 227 °C
6 | CCCc1nc2c(N)nc(C)c(C)c2n1CCCCS(=O)(=O)N(C)C [Example 26, N,N-Dimethyl 4-(4-Amino-6,7-dimethyl-2-propyl-1H-imidazo[4,5-c]pyridin-1-yl)butane-1-sulfonamide] | 127 to 128 °C
7 | CCc1nc2c(N)nc3ccccc3c2n1CCCCS(=O)(=O)N(C)C [Example 3, N,N-Dimethyl 4-(4-amino-2-ethyl-1H-imidazo[4,5-c]quinolin-1-yl)butane-1-sulfonamide] | 193 to 195 °C
8 | CCOCc1nc2c(N)nc3ccccc3c2n1CCCCCS(=O)(=O)NCc1ccc(OC)cc1 [Example 22, N-(4-Methoxybenzyl) 5-(4-amino-2-ethoxymethyl-1H-imidazo[4,5-c]quinolin-1-yl)pentane-1-sulfonamide] | 177 to 178 °C
9 | CCOCc1nc2c(N)nc3ccccc3c2n1CCCCS(=O)(=O)NC [Example 10, N-Methyl 4-(4-amino-2-ethoxymethyl-1H-imidazo[4,5-c]quinolin-1-yl)butane-1-sulfonamide] | 170 to 172 °C
10 | CCOCc1nc2c(N)nc3ccccc3c2n1CCCCS(=O)(=O)N(C)C [Example 11, N,N-Dimethyl 4-(4-amino-2-ethoxymethyl-1H-imidazo[4,5-c]quinolin-1-yl)butane-1-sulfonamide] | 173 to 174 °C
11 | CCOCc1nc2c(N)nc3ccccc3c2n1CCCCCS(=O)(=O)NC [Example 16, N-Methyl 5-(4-amino-2-ethoxymethyl-1H-imidazo[4,5-c]quinolin-1-yl)pentane-1-sulfonamide] | 175 to 179 °C
12 | CCc1nc2c(N)nc3ccccc3c2n1CCCCS(=O)(=O)NC [Example 4, N-Methyl 4-(4-amino-2-ethyl-1H-imidazo[4,5-c]quinolin-1-yl)butane-1-sulfonamide] | 190 to 191 °C
13 | CCc1nc2c(N)nc3ccccc3c2n1CCCS(=O)(=O)N(C)C [Example 2, N,N-Dimethyl 3-(4-amino-2-ethyl-1H-imidazo[4,5-c]quinolin-1-yl)propane-1-sulfonamide] | 209 to 211 °C
14 | CCOCc1nc2c(N)nc3ccccc3c2n1CCCCS(N)(=O)=O [Example 21, 4-(4-Amino-2-ethoxymethyl-1H-imidazo[4,5-c]quinolin-1-yl)butane-1-sulfonamide] | 155 to 158 °C
15 | CCOCc1nc2c(N)nc3c(c2n1CCCCS(=O)(=O)NC)CCCC3 [Example 18, N-Methyl 4-(4-amino-2-ethoxymethyl-6,7,8,9-tetrahydro-1H-imidazo[4,5-c]quinolin-1-yl)butane-1-sulfonamide] | 188 to 192 °C
16 | CN(C)S(=O)(=O)CCCn1cnc2c(N)nc3ccccc3c21 [Example 7, N,N-Dimethyl 3-(4-amino-1H-imidazo[4,5-c]quinolin-1-yl)propane-1-sulfonamide] | 155 to 157 °C
17 | CCCCNS(=O)(=O)CCCCn1c(COCC)nc2c(N)nc3ccccc3c21 [Example 14, N-Butyl 4-(4-amino-2-ethoxymethyl-1H-imidazo[4,5-c]quinolin-1-yl)butane-1-sulfonamide] | 148 to 149 °C
18 | CCOCc1nc2c(N)nc3ccccc3c2n1CCCCCS(=O)(=O)N(C)C [Example 17, N,N-Dimethyl 5-(4-amino-2-ethoxymethyl-1H-imidazo[4,5-c]quinolin-1-yl)pentane-1-sulfonamide] | 138 to 142 °C
19 | CCc1nc2c(N)nc3ccccc3c2n1CCCS(=O)(=O)NC [Example 1, N-Methyl 3-(4-amino-2-ethyl-1H-imidazo[4,5-c]quinolin-1-yl)propane-1-sulfonamide] | 225 to 228 °C
20 | CCOCc1nc2c(N)nc3ccccc3c2n1CCCCS(=O)(=O)N1CCCCC1 [Example 12, 2-Ethoxymethyl-1-[4-(piperidine-1-sulfonyl)butyl]-1H-imidazo[4,5-c]quinoline-4-amine] | 185 to 188 °C
21 | CCOCc1nc2c(N)nc3ccccc3c2n1CCOCCCS(=O)(=O)N(C)C [Example 15, N,N-Dimethyl 3-[2-(4-amino-2-ethoxymethyl-1H-imidazo[4,5-c]quinolin-1-yl)ethoxy]propane-1-sulfonamide] | 61 to 64 °C
22 | CCOCc1nc2c(N)nc3ccccc3c2n1CCCCS(=O)(=O)NCc1ccc(OC)cc1 [Example 20, N-(4-Methoxybenzyl) 4-(4-amino-2-ethoxymethyl-1H-imidazo[4,5-c]quinolin-1-yl)butane-1-sulfonamide] | 101 °C
23 | CCOCc1nc2c(N)nc3ccccc3c2n1CC(C)(C)CS(=O)(=O)N(C)C (as salt: hydrochloride) [Example 25, N,N-Dimethyl 3-(4-amino-2-ethoxymethyl-1H-imidazo[4,5-c]quinolin-1-yl)-2,2-dimethylpropane-1-sulfonamide] | 193 to 195 °C

Now from value to compound:

Row | melting point | Structure (SMILES)
24 | 200 to 201.5 °C | CCOCc1nc2c(N)nc(C)c(C)c2n1CCCCS(N)(=O)=O [Example 35, 4-(4-Amino-2-ethoxymethyl-6,7-dimethyl-1H-imidazo[4,5-c]pyridin-1-yl)butane-1-sulfonamide]
25 | 166 to 170 °C | CCc1nc2c(N)nc3c(c2n1CCCCS(=O)(=O)NC)CCCC3 [Example 39, N-Methyl 4-(4-amino-2-ethyl-6,7,8,9-tetrahydro-1H-imidazo[4,5-c]quinolin-1-yl)butane-1-sulfonamide]
26 | 197 to 200 °C | CCOCc1nc2c(N)nc3ccccc3c2n1CCCCS(=O)(=O)Nc1ccccn1 [Example 40, 4-[4-Amino-2-(ethoxymethyl)-1H-imidazo[4,5-c]quinolin-1-yl]-N-(pyridin-2-yl)butane-1-sulfonamide]
27 | 146 to 147 °C | CCOCc1nc2c(N)nc3ccccc3c2n1CCCCS(=O)(=O)NC(C)C [Example 37, 4-[4-Amino-2-(ethoxymethyl)-1H-imidazo[4,5-c]quinolin-1-yl]-N-isopropylbutane-1-sulfonamide]
28 | 174 to 175 °C | CCCc1nc2c(N)nc3cccnc3c2n1CCCCS(=O)(=O)NC [Example 33, N-Methyl 4-(4-Amino-2-propyl-1H-imidazo[4,5-c][1,5]naphthyridin-1-yl)butane-1-sulfonamide]
29 | 203 to 205 °C | CCOCc1nc2c(N)nc3ccccc3c2n1CC(C)(C)CS(=O)(=O)NCc1ccc(OC)cc1 [Example 41, 3-[4-Amino-2-(ethoxymethyl)-1H-imidazo[4,5-c]quinolin-1-yl]-N-(4-methoxybenzyl)-2,2-dimethylpropane-1-sulfonamide]
30 | 203 to 205 °C | CCOCc1nc2c(N)nc3c(c2n1CCCCCS(N)(=O)=O)CCCC3 [Example 38, 5-[4-amino-2-(ethoxymethyl)-6,7,8,9-tetrahydro-1H-imidazo[4,5-c]quinolin-1-yl]pentane-1-sulfonamide]
31 | 148 to 150 °C | CCOCc1nc2c(N)nc3cccnc3c2n1CCCCS(=O)(=O)NC [Example 32, N-Methyl 4-(4-Amino-2-ethoxymethyl-1H-imidazo[4,5-c][1,5]naphthyridin-1-yl)butane-1-sulfonamide]
32 | 194.5 to 196 °C | CCOCc1nc2c(N)nc(C)c(C)c2n1CCCCS(=O)(=O)NC [Example 34, N-Methyl 4-(4-Amino-6,7-dimethyl-2-ethoxymethyl-1H-imidazo[4,5-c]pyridin-1-yl) butane-1-sulfonamide]
33 | 229 to 231 °C | CCOCc1nc2c(N)nc3ccccc3c2n1CC(C)(C)CS(N)(=O)=O [Example 42, 3-[4-Amino-2-(ethoxymethyl)-1H-imidazo[4,5-c]quinolin-1-yl]-2,2-dimethylpropane-1-sulfonamide]
34 | 158 to 160 °C | CCOCc1nc2c(N)nc(C)c(C)c2n1CCCCS(=O)(=O)N(C)C [Example 28, N,N-Dimethyl 4-(4-Amino-6,7-dimethyl-2-ethoxymethyl-1H-imidazo[4,5-c]pyridin-1-yl)butane-1-sulfonamide]
35 | 167 to 169 °C | CCCc1nc2c(N)nc(C)c(C)c2n1CCCCS(N)(=O)=O [Example 31, 4-(4-Amino-6,7-dimethyl-2-propyl-1H-imidazo[4,5-c]pyridin-1-yl)butane-1-sulfonamide]
36 | 242 to 243 °C (dec.) | Cc1nc2c(N)nc3c(c2n1CC(C)(C)CS(N)(=O)=O)CCCC3 [Example 43, 3-(4-Amino-2-methyl-6,7,8,9-tetrahydro-1H-imidazo[4,5-c]quinolin-1-yl)-2,2-dimethylpropane-1-sulfonamide]
37 | 162 to 163 °C | CCCc1nc2c(N)nc3cccnc3c2n1CCCCS(=O)(=O)N(C)C [Example 30, N,N-Dimethyl 4-(4-Amino-2-propyl-1H-imidazo[4,5-c][1,5]naphthyridin-1-yl)butane-1-sulfonamide]
38 | 164 to 166 °C | CCCc1nc2c(N)nc(C)c(C)c2n1CCCCS(=O)(=O)NC [Example 27, N-Methyl 4-(4-Amino-6,7-dimethyl-2-propyl-1H-imidazo[4,5-c]pyridin-1-yl)butane-1-sulfonamide]

Reference: US8735421B2, “Imidazoquinolinyl sulfonamides” (3M Innovative Properties Company, priority 2003, dated 2014)
